What all share (assay type): cell-based
In assay [1] the test system is Aβ42. As to the kind of experiment: Screening for γ-secretase-modulating activity, Method 1: Aβ42 sandwich ELISA in supernatant of SKNBE2 cells carrying APP 695 wild type (Tables 12a, 12b). The method in brief: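 SKNBE2 cells expressing wild-type APP695 were treated with compound for 18 h, and secreted Aβ42 in the medium was quantified by sandwich ELISA (C-terminal-selective capture, biotinylated 3D6 detection, TMB read at 450 nm). IC50 came from 4-parameter fits of % inhibition or % of untreated control; toxicity was checked by WST-1.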
(In general: An ELISA detects its analyte on a solid surface through an enzyme-linked reagent.)

The test system of a further assay is Aβtotal. As to the kind of experiment: Screening for γ-secretase-modulating activity, Method 1: Aβtotal sandwich ELISA in supernatant of SKNBE2 cells carrying APP 695 wild type (Tables 12a, 12b). The gist of the method:
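SKNBE2 cells expressing wild-type APP 695 were plated a day ahead, then exposed to compound in Ultraculture with 1% glutamine for 18 hours. Supernatant Aβtotal captured on 6E10 overnight at 4° C, detected with biotinylated 4G8 and streptavidin-peroxidase with a fluorogenic substrate. IC50 from 4-parameter dose-response fits.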

Assay [2] deals with Aβ42. As to the kind of experiment: Screening for γ-secretase-modulating activity, Method 2: Aβ42 Alphalisa in supernatant of SKNBE2 cells carrying APP 695 wild type (Table 12c). To be noted: Method 2, Table 12c, incubated overnight. The method in brief:
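SKNBE2 cells expressing wild-type APP695, 10^4 cells/well, exposed to compound overnight at 37 °C; secreted Aβ42 and Aβtotal in supernatant measured by AlphaLISA sandwich immunoassays (Aβ42: C-terminal/N-terminal antibodies; Aβtotal: N-terminal/4G8). IC50 from 4-parameter fit of % untreated control.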

Setting [3] is: Homo sapiens, Method 1, Table 12a, SKNBE2 cells carrying APP 695 wild type, compounds 18 hours, ELISA, curve top and bottom fixed to 100 and 0, hill slope 1.
Where [4] appears, read: Homo sapiens, Table 12b, Method 1, SKNBE2 cells carrying APP 695 wild type, cell supernatant ELISA, averaged IC50 values, percentage of control vs log concentration.
The mark [5] stands for this setting: Homo sapiens, Table 12b, Method 1, SKNBE2 cells carrying APP 695 wild type, cell supernatant ELISA, averaged IC50 values.

Take `COc1cc(Nc2cccn3c(Cl)c(-c4ccc(F)cc4)nc23)ccc1-n1cnc(C)c1` [Compound 2]: the IC50 (commonly the concentration that inhibits the measured activity by half) is 65 nM in the assay with Aβ42 [1] (setting [3]), 55 nM with Aβ42 [1] (setting [4]), above 3000 nM in the assay on Aβtotal (setting [3]) and above 3020 nM in the assay on Aβtotal (setting [5]).
Turning to `COc1cc(Nc2cccn3c(C)c(-c4ccccc4Cl)nc23)ccc1-n1cnc(C)c1` [Compound 15], the half-inhibitory concentration (IC50) with Aβ42 [1] (setting [3]) was 12 nM; with Aβ42 [1] (setting [4]), 11 nM; with Aβtotal (setting [3]), above 3000 nM; in the assay with Aβtotal (setting [5]) it was above 3020 nM; in the assay on Aβ42 [2] (Homo sapiens), 38 nM.
With `COc1cc(Nc2cccn3cc(C)nc23)ccc1-n1cnc(C)c1` [Compound 50], the IC50 in the assay with Aβ42 [1] (setting [3]) is 253 nM; with Aβ42 [1] (setting [4]), 251 nM; in the assay with Aβtotal (setting [3]), above 3000 nM; in the assay on Aβtotal (setting [5]), above 5010 nM; in the assay on Aβ42 [2] (Homo sapiens), 309 nM.
In the same order, the values of `COc1cc(Nc2cccn3cc(C4CCOCC4)nc23)ccc1-n1cnc(C)c1` [Compound 4] are 53 nM, 85 nM, above 3000 nM, above 3020 nM and 166 nM.
For `COc1cccc(-c2cn3cccc(Nc4ccc(-n5cnc(C)c5)c(OC)c4)c3n2)c1` [Compound 33], the IC50 was 31 nM in the assay with Aβ42 [1] (setting [3]); 27 nM in the assay with Aβ42 [1] (setting [4]); above 3000 nM in the assay on Aβtotal (setting [3]); above 3020 nM with Aβtotal (setting [5]); 71 nM in the assay with Aβ42 [2] (Homo sapiens).
As for `COc1nc(Nc2cccn3c(C)c(-c4ccccc4C(F)(F)F)nc23)ccc1-n1cnc(C)c1` [Compound 138], the IC50 in the assay with Aβ42 [1] (Table 12b, Method 1, SKNBE2 cells carrying APP 695 wild type, cell supernatant ELISA, averaged IC50 values, percentage of control vs log concentration) was 9 nM; in the assay with Aβtotal (Table 12b, Method 1, SKNBE2 cells carrying APP 695 wild type, cell supernatant ELISA, averaged IC50 values), above 3020 nM; in the assay on Aβ42 [2], 5 nM.
With `COc1cc(Nc2cccn3cc(-c4ccc(F)cc4)nc23)ccc1-n1cnc(C)c1` [Compound 1], the IC50 in the assay with Aβ42 [1] (setting [3]) was 101 nM; in the assay on Aβ42 [1] (setting [4]), 98 nM; in the assay with Aβtotal (setting [3]), above 5000 nM; with Aβtotal (setting [5]) it was above 5010 nM; in the assay on Aβ42 [2] (Homo sapiens) it was 155 nM.
Regarding `COc1cc(Nc2cccn3c(C)c(-c4c(F)cccc4F)nc23)ccc1-n1cnc(C)c1` [Compound 27], the IC50 in the assay on Aβ42 [1] (setting [3]) was 25 nM; in the assay with Aβ42 [1] (setting [4]) it was 25 nM; with Aβtotal (setting [3]), above 3000 nM; in the assay on Aβtotal (setting [5]), above 3020 nM.
In the case of `COc1cc(Nc2cccn3c(C)c(-c4ccccc4)nc23)ccc1-n1cnc(C)c1` [Compound 5], the IC50 in the assay with Aβ42 [1] (setting [3]) is 14 nM; with Aβ42 [1] (setting [4]), 12 nM; with Aβtotal (setting [3]) it was above 1000 nM; with Aβtotal (setting [5]), above 3020 nM.
On to `Cc1ncn(-c2ccc(Nc3cccn4cc(-c5ccccc5C)nc34)cc2)n1` [Compound 71], for which the half-inhibitory concentration (IC50) in the assay with Aβ42 [1] (setting [3]) is 288 nM; with Aβtotal (setting [3]), above 3000 nM; with Aβ42 [2] (Homo sapiens) it was 407 nM.
Regarding `COc1cc(Nc2cccn3c(C)c(-c4ccccc4C(F)(F)F)nc23)ccc1-n1cnc(C)c1` [Compound 29], the IC50 with Aβ42 [1] (setting [3]) is 10 nM; with Aβ42 [1] (setting [4]), 8 nM; with Aβtotal (setting [3]) it was above 1000 nM; with Aβtotal (setting [5]) it was above 10000 nM; with Aβ42 [2] (Homo sapiens), 13 nM.
